{"source": "patent US6291683A", "about": "“N-arloxyethyl-alkylamines for the treatment of depression” (American Home Products Corp, priority 2000, dated 2001)", "key": {"[1]": {"molecular_target": "T1, serotonin transporter (Rattus norvegicus, UniProt P31652)", "T1 construct": "frontal cortical membranes prepared from male Sprague-Dawley rats; from tissue; host or cells: frontal cortex membranes, male Sprague-Dawley rats", "T1 sequence (P31652 whole entry)": "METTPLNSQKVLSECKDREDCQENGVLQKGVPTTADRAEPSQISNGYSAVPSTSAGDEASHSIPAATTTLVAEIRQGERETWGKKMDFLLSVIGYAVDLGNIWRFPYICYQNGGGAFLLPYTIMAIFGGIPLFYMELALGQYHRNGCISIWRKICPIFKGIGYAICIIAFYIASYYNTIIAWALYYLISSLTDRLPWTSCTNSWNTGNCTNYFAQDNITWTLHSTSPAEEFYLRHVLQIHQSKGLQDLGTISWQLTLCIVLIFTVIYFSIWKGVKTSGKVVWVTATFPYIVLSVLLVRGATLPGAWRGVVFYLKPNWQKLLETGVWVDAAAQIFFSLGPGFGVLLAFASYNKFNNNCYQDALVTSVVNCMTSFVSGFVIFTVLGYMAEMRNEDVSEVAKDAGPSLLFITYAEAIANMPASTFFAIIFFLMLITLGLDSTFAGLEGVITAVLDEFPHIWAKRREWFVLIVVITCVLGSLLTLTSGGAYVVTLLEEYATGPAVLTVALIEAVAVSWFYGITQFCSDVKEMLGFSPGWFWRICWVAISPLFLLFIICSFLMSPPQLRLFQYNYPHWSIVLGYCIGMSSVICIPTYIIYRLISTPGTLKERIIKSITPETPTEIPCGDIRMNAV", "experiment": "affinity for the serotonin transporter ([3H]-paroxetine binding, rat frontal cortical membranes)", "set-up": "species or system rat (male Sprague-Dawley)", "settings": "for inhibition at 0.1 µM: @ .1 μM, read-out: ST (% Inhib. @ .1 μM)", "experimental": "Briefly, frontal cortical membranes prepared from male Sprague-Dawley rats were incubated with ^3 H-paroxetine (0.1 nM) for 60 min at 25° C. […] All reactions are terminated by the addition of ice cold Tris buffer followed by rapid filtration using a Tom Tech filtration device to separate bound from free ^3 H-paroxetine."}, "[2]": {"molecular_target": "T2, 5-HT1A cloned receptor (Homo sapiens, UniProt P08908)", "T2 construct": "expressed in transfected cells", "T2 sequence (P08908 1-422)": "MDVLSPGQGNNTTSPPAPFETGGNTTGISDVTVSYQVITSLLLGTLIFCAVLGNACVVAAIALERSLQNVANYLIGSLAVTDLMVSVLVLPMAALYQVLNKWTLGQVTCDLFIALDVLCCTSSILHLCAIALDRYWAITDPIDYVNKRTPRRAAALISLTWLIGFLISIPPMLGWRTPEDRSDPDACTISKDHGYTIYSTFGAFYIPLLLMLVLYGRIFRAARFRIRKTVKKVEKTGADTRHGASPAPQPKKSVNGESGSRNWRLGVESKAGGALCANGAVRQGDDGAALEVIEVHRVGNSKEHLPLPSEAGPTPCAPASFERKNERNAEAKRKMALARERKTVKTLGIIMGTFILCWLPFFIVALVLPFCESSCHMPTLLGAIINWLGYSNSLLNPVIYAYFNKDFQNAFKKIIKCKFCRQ", "experiment": "[35S]-GTPγS binding assay, 5-HT1A cloned receptor membrane fragments", "assay_type": "biochemical", "settings": "maximum agonist response defined by excess 8-OH-DPAT"}, "[3]": {"molecular_target": "T3, human 5-HT1A receptor (Homo sapiens, UniProt P08908)", "T3 sequence (P08908 1-422)": "T2 sequence (P08908 1-422)", "experiment": "5-HT1A receptor binding ([3H]8-OH-DPAT displacement, membranes of 5-HT1A.CHO cells)", "experimental": "Cells were maintained in DMEN supplemented with 10% fetal calf serum, non-essential amino acids and penicillin/ streptomycin.\nCells were grown to 95-100% confluency as a monolayer before membranes were harvested for binding studies. Cells were gently scraped from the culture plates, transferred to centrifuge tubes, and washed twice by centrifugation (2000 rpm for 10 min., 4° C.) in buffer (50 mM Tris; pH 7.5). The resulting pellets were aliquoted and placed at -80° C. On the day of assay, the cells were thawed on ice, and resuspended in buffer. Studies were conducted using [^3 H]8-OH-DPAT as the radioligand. The binding assay was performed in 96 well microtiter plates in a final total volume of 250 μL of buffer."}, "[4]": {"settings": "[3H]-paroxetine 0.1 nM, 60 min, 25° C"}, "[5]": {"settings": "read-out: 5-HT1A (Ki), [3H]8-OH-DPAT 1.5 nM, 30 min, room temperature, CHO cell membranes"}}, "note": "Read-outs that look alike come from different tables or passages of the source."}
{"molecule": "c1ccc(OCCNCCCc2c[nH]c3ccccc23)cc1", "note": "[Example 13d, [3-(1H-indol-3-yl)-propyl]-[2-phenoxy-ethyl]-amine]", "values": [{"measurement": "inhibition at 0.1 µM", "setting": "[1]; [4]", "result": 26, "unit": "%"}]}
{"molecule": "c1cc(OCCNCCc2c[nH]c3ccccc23)c2c(c1)OCCO2", "note": "[Example 6, [2-(2,3-Dihydrobenzo[1,4]dioxin-5-yloxy)-ethyl]-[2-(1H-indol-3-yl)-ethyl]-amine]", "values": [{"measurement": "Ki", "setting": "[1]", "result": 12, "unit": "nM"}, {"measurement": "Emax", "setting": "[2]", "result": 100, "unit": "%"}]}
{"molecule": "[3-(5-Fluoro-1H-indol-3-yl)-propyl]-[2-(2-methoxy-phenoxy)-2-phenyl-ethyl]- amine [Example 16]", "values": [{"measurement": "Ki", "setting": "[3]; [5]", "result": 43.9, "unit": "nM"}, {"measurement": "Ki", "setting": "[1]; [3H]-paroxetine 0.1 nM, 60 min, 25° C, Ki converted from IC50 (Cheng and Prusoff), read-out: ST (Ki)", "result": 21, "unit": "nM"}]}
{"molecule": "COc1ccccc1OC(C)CNCCCc1c[nH]c2ccc(F)cc12", "note": "(stereo not drawn) [Example 17, [3-(5-Fluoro-1H-indol-3-yl)-propyl]-[2-(2-methoxy-phenoxy)propyl]amine]", "values": [{"measurement": "Ki", "setting": "[3]; [5]", "result": 14.5, "unit": "nM"}, {"measurement": "Ki", "setting": "[1]; read-out: ST (Ki), [3H]-paroxetine 0.1 nM, 60 min, 25° C, Ki converted from IC50 (Cheng and Prusoff)", "result": 16, "unit": "nM"}, {"measurement": "Emax", "setting": "[2]", "result": 97.5, "unit": "%"}]}
{"molecule": "Fc1ccc2[nH]cc(CCCNCCOc3ccc4c(c3)CCC4)c2c1", "note": "[Example 14]", "values": [{"measurement": "Ki", "setting": "[3]", "result": 158, "unit": "nM"}, {"measurement": "Ki", "setting": "[1]", "result": 56, "unit": "nM"}]}
{"molecule": "Fc1ccc2[nH]cc(CCCNCCOc3cccc4c3CCC4)c2c1", "note": "[Example 13a, [3-(5-Fluoro-1H-indol-3-yl)-propyl]-[2-(indan-4-yloxy)-ethyl]-amine]", "values": [{"measurement": "Ki", "setting": "[3]", "result": 76.9, "unit": "nM"}, {"measurement": "inhibition at 0.1 µM", "setting": "[1]; [4]", "result": 71, "unit": "%"}]}
